Experimental data reported in patent US20230146675A1, “PYRIMIDO[5,4-d]PYRIMIDINE DERIVATIVES AS ENT INHIBITORS FOR THE TREATMENT OF CANCERS, AND COMBINATION THEREOF WITH ADENOSINE RECEPTOR ANTAGONISTS” (ITEOS BELGIUM SA, priority 2020, published 2023).

These compounds were tested against T1, human ENT1 (Homo sapiens, UniProt Q99808) (assay: ENT1 binding assay (competition with Sahenta-DY647 on JAR cells)). Conditions: binned IC50.
T1 sequence (Q99808 1-456): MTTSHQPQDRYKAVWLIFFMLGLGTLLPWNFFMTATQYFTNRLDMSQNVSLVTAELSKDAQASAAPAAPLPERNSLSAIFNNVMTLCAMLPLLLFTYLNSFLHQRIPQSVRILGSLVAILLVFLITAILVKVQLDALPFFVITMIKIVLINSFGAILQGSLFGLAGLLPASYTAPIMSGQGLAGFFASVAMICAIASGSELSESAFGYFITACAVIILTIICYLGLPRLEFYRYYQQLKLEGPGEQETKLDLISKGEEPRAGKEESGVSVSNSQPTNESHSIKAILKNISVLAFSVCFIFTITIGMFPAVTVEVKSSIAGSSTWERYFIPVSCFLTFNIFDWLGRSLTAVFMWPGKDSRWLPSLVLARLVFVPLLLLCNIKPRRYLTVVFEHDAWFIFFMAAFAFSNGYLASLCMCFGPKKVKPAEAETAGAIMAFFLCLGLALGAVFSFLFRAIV
Parameters: JAR cells expressing ENT1 were bought from ATCC; host or cells: JAR cells
Procedure, shortened: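 JAR cells were incubated with test compounds and the fluorescent ligand Sahenta-DY647 in competition. Plates were washed twice by centrifugation (4 min, 400 rcf, 4 °C). Binding potency was derived from the final fluorescence.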

| Compound | IC50 |
| --- | --- |
| COCCN(CCOC)c1nc(N2CC(O)(C(F)(F)F)C2)c2nc(N(CCOC)CCOC)nc(N3CCC(OC)CC3)c2n1 [Compound 111, 1-(2,6-bis(bis(2-methoxyethyl)amino)-8-(4-methoxypiperidin-1-yl)pyrimido[5,4-d]pyrimidin-4-yl)-3-(trifluoromethyl)azetidin-3-ol] | < 0.1 µM |
| COCCN(CCOC)c1nc(N2CCC(OC)CC2)c2nc(N(CCOC)CCOC)nc(N(C)CCO)c2n1 [Compound 112, 2-((2,6-bis(bis(2-methoxyethyl)amino)-8-(4-methoxypiperidin-1-yl)pyrimido[5,4-d]pyrimidin-4-yl)(methyl)amino)ethanol] | 0.1 to 0.5 µM |
| COCCN(CCOC)c1nc(N2CCOC(C)C2)c2nc(N(CCOC)CCOC)nc(N3CCC(OC)CC3)c2n1 (centres unmarked) [Compound 113, N2,N2,N6,N6-tetrakis(2-methoxyethyl)-4-(4-methoxypiperidin-1-yl)-8-(2-methylmorpholino)pyrimido[5,4-d]pyrimidine-2,6-diamine] | 0.1 to 0.5 µM |
| COCCN(CCOC)c1nc(N2CCn3cncc3C2)c2nc(N(CCOC)CCOC)nc(N3CCC(OC)CC3)c2n1 [Compound 114, 4-(5,6-dihydroimidazo[1,5-a]pyrazin-7(8H)-yl)-N2,N2,N6,N6-tetrakis(2-methoxyethyl)-8-(4-methoxypiperidin-1-yl)pyrimido[5,4-d]pyrimidine-2,6-diamine] | < 0.1 µM |
| COCCN(CCOC)c1nc(N2CCCC(CO)C2)c2nc(N(CCOC)CCOC)nc(N3CCC(OC)CC3)c2n1 (centres unmarked) [Compound 115, (1-(2,6-bis(bis(2-methoxyethyl)amino)-8-(4-methoxypiperidin-1-yl)pyrimido[5,4-d]pyrimidin-4-yl)piperidin-3-yl)methanol] | 0.1 to 0.5 µM |
| COCCN(CCOC)c1nc(N2CCn3ncnc3C2)c2nc(N(CCOC)CCOC)nc(N3CCC(OC)CC3)c2n1 [Compound 116, 4-(5,6-dihydro-[1,2,4]triazolo[1,5-a]pyrazin-7(8H)-yl)-N2,N2,N6,N6-tetrakis(2-methoxyethyl)-8-(4-methoxypiperidin-1-yl)pyrimido[5,4-d]pyrimidine-2,6-diamine] | < 0.1 µM |
| COCCN(CCOC)c1nc(N2CCC3(CC2)NC(=O)NC3=O)c2nc(N(CCOC)CCOC)nc(N3CCC(OC)CC3)c2n1 [Compound 117, 8-(2,6-bis(bis(2-methoxyethyl)amino)-8-(4-methoxypiperidin-1-yl)pyrimido[5,4-d]pyrimidin-4-yl)-1,3,8-triazaspiro[4.5]decane-2,4-dione] | 0.5 to 1 µM |
| COCCN(CCOC)c1nc(N2CCN(c3cccnc3)CC2)c2nc(N(CCOC)CCOC)nc(N3CCC(OC)CC3)c2n1 [Compound 118, N2,N2,N6,N6-tetrakis(2-methoxyethyl)-4-(4-methoxypiperidin-1-yl)-8-(4-(pyridin-3-yl)piperazin-1-yl)pyrimido[5,4-d]pyrimidine-2,6-diamine] | 0.1 to 0.5 µM |
| COCCN(CCOC)c1nc(N2CCN(c3ncccn3)CC2)c2nc(N(CCOC)CCOC)nc(N3CCC(OC)CC3)c2n1 [Compound 119, N2,N2,N6,N6-tetrakis(2-methoxyethyl)-4-(4-methoxypiperidin-1-yl)-8-(4-(pyrimidin-2-yl)piperazin-1-yl)pyrimido[5,4-d]pyrimidine-2,6-diamine] | 0.5 to 1 µM |
| COCCN(CCOC)c1nc(N2CCN(c3cnccn3)CC2)c2nc(N(CCOC)CCOC)nc(N3CCC(OC)CC3)c2n1 [Compound 120, N2,N2,N6,N6-tetrakis(2-methoxyethyl)-4-(4-methoxypiperidin-1-yl)-8-(4-(pyrazin-2-yl)piperazin-1-yl)pyrimido[5,4-d]pyrimidine-2,6-diamine] | 0.5 to 1 µM |
| COCCN(CCOC)c1nc(N2CCN(c3ncccc3N)CC2)c2nc(N(CCOC)CCOC)nc(N3CCC(OC)CC3)c2n1 [Compound 121, 4-(4-(3-aminopyridin-2-yl)piperazin-1-yl)-N2,N2,N6,N6-tetrakis(2-methoxyethyl)-8-(4-methoxypiperidin-1-yl)pyrimido[5,4-d]pyrimidine-2,6-diamine] | 0.5 to 1 µM |
| COCCN(CCOC)c1nc(N2CCN(c3nccc(C)n3)CC2)c2nc(N(CCOC)CCOC)nc(N3CCC(OC)CC3)c2n1 [Compound 122, N2,N2,N6,N6-tetrakis(2-methoxyethyl)-4-(4-methoxypiperidin-1-yl)-8-(4-(4-methylpyrimidin-2-yl)piperazin-1-yl)pyrimido[5,4-d]pyrimidine-2,6-diamine] | 0.1 to 0.5 µM |
| COCCN(CCOC)c1nc(N2CCN(c3nc(C)ns3)CC2)c2nc(N(CCOC)CCOC)nc(N3CCC(OC)CC3)c2n1 [Compound 123, N2,N2,N6,N6-tetrakis(2-methoxyethyl)-4-(4-methoxypiperidin-1-yl)-8-(4-(3-methyl-1,2,4-thiadiazol-5-yl)piperazin-1-yl)pyrimido[5,4-d]pyrimidine-2,6-diamine] | 0.1 to 0.5 µM |
| COCCN(CCOC)c1nc(N2CCN(c3ccc(C#N)cn3)CC2)c2nc(N(CCOC)CCOC)nc(N3CCC(OC)CC3)c2n1 [Compound 124, 6-(4-(2,6-bis(bis(2-methoxyethyl)amino)-8-(4-methoxypiperidin-1-yl)pyrimido[5,4-d]pyrimidin-4-yl)piperazin-1-yl)nicotinonitrile] | 0.1 to 0.5 µM |
| COCCN(CCOC)c1nc(N2CCN(c3nccc(OC)n3)CC2)c2nc(N(CCOC)CCOC)nc(N3CCC(OC)CC3)c2n1 [Compound 125, N2,N2,N6,N6-tetrakis(2-methoxyethyl)-4-(4-methoxypiperidin-1-yl)-8-(4-(4-methoxypyrimidin-2-yl)piperazin-1-yl)pyrimido[5,4-d]pyrimidine-2,6-diamine] | 0.1 to 0.5 µM |
| CCNc1nc(N(CCOC)CCOC)nc2c(N3CCC(OC)CC3)nc(N(CCOC)CCOC)nc12 [Compound 126, N4-ethyl-N2,N2,N6,N6-tetrakis(2-methoxyethyl)-8-(4-methoxypiperidin-1-yl)pyrimido[5,4-d]pyrimidine-2,4,6-triamine] | 0.5 to 1 µM |
| COCCN(CCOC)c1nc(N2CCC(OC)CC2)c2nc(N(CCOC)CCOC)nc(NCC(C)C)c2n1 [Compound 127, N4-isobutyl-N2,N2,N6,N6-tetrakis(2-methoxyethyl)-8-(4-methoxypiperidin-1-yl)pyrimido[5,4-d]pyrimidine-2,4,6-triamine] | 0.1 to 0.5 µM |
| COCCNc1nc(N(CCOC)CCOC)nc2c(N3CCC(OC)CC3)nc(N(CCOC)CCOC)nc12 [Compound 128, N2,N2,N4,N6,N6-pentakis(2-methoxyethyl)-8-(4-methoxypiperidin-1-yl)pyrimido[5,4-d]pyrimidine-2,4,6-triamine] | 0.5 to 1 µM |
| COCCN(CCOC)c1nc(N2CCN(c3nc(C)no3)CC2)c2nc(N(CCOC)CCOC)nc(N3CCN(c4nc(C)no4)CC3)c2n1 [Compound 129, N2,N2,N6,N6-tetrakis(2-methoxyethyl)-4,8-bis(4-(3-methyl-1,2,4-oxadiazol-5-yl)piperazin-1-yl)pyrimido[5,4-d]pyrimidine-2,6-diamine] | 0.1 to 0.5 µM |
| COCCN(CCOC)c1nc(N2CCN(c3nnc(C)o3)CC2)c2nc(N(CCOC)CCOC)nc(N3CCN(c4nnc(C)o4)CC3)c2n1 [Compound 130, N2,N2,N6,N6-tetrakis(2-methoxyethyl)-4,8-bis(4-(5-methyl-1,3,4-oxadiazol-2-yl)piperazin-1-yl)pyrimido[5,4-d]pyrimidine-2,6-diamine] | 0.5 to 1 µM |
| COCCN(CCOC)c1nc(N2CCN(c3ncn(C)n3)CC2)c2nc(N(CCOC)CCOC)nc(N3CCN(c4ncn(C)n4)CC3)c2n1 [Compound 131, N2,N2,N6,N6-tetrakis(2-methoxyethyl)-4,8-bis(4-(1-methyl-1H-1,2,4-triazol-3-yl)piperazin-1-yl)pyrimido[5,4-d]pyrimidine-2,6-diamine] | 0.1 to 0.5 µM |
| CCN(CCN1CCCC1)c1nc(N2CCC(OC)CC2)c2nc(N(CCOC)CCOC)nc(N3CCC(OC)CC3)c2n1 [Compound 132, N2-ethyl-N6,N6-bis(2-methoxyethyl)-4,8-bis(4-methoxypiperidin-1-yl)-N2-(2-(pyrrolidin-1-yl)ethyl)pyrimido[5,4-d]pyrimidine-2,6-diamine] | 0.5 to 1 µM |
| CCN(CCN1CCCCC1)c1nc(N2CCC(OC)CC2)c2nc(N(CCOC)CCOC)nc(N3CCC(OC)CC3)c2n1 [Compound 133, N2-ethyl-N6,N6-bis(2-methoxyethyl)-4,8-bis(4-methoxypiperidin-1-yl)-N2-(2-(piperidin-1-yl)ethyl)pyrimido[5,4-d]pyrimidine-2,6-diamine] | 0.5 to 1 µM |
| COCCN(CCOC)c1nc(N2CCC(OC)CC2)c2nc(NCCCn3ccnc3)nc(N3CCC(OC)CC3)c2n1 [Compound 134, N2-(3-(1H-imidazol-1-yl)propyl)-N6,N6-bis(2-methoxyethyl)-4,8-bis(4-methoxypiperidin-1-yl)pyrimido[5,4-d]pyrimidine-2,6-diamine] | 0.5 to 1 µM |
| COCCN(CCOC)c1nc(N2CCN(c3nnc(C)o3)CC2)c2nc(N(CCOC)CCOC)nc(N3CCC(OC)CC3)c2n1 [Compound 135, N2,N2,N6,N6-tetrakis(2-methoxyethyl)-4-(4-methoxypiperidin-1-yl)-8-(4-(5-methyl-1,3,4-oxadiazol-2-yl)piperazin-1-yl)pyrimido[5,4-d]pyrimidine-2,6-diamine] | 0.5 to 1 µM |
| COCCN(CCOC)c1nc(N2CCC(CO)C2)c2nc(N(CCOC)CCOC)nc(N3CCC(OC)CC3)c2n1 (centres unmarked) [Compound 136, (1-(2,6-bis(bis(2-methoxyethyl)amino)-8-(4-methoxypiperidin-1-yl)pyrimido[5,4-d]pyrimidin-4-yl)pyrrolidin-3-yl)methanol] | < 0.1 µM |
